The test system of the assay is EA-specific antibodies. Nature of the assay: Production of EA-specific antibodies in mice (Table 2). In kind it is in vivo. As to conditions: EA 50 μg, BaBb/c mice, preparation 20 μg intraperitoneal. The protocol: Erythrocytes of defibrinated sheep blood were washed three times by centrifugation (1000 rpm, 10 m)in 50-fold volume of Hanks' solution, and were then re-suspended in the same solution. Mice were immunised intraperitoneally with 2 ml SE, 200 μg BSA or 50 μg EA. The latter two antigens were injected twice, with a 2-4 week interval between immunisations.
The appropriate amount of APG was dissolved in Hank's solution or in physiological saline, 2-3 hours prior to use. APG was administered to mice in doses of between 1 and 1000 μg. When. mice were immunised with BSA, EA or SE, APG was administered simultaneously with the antigen.
The intensity of the immune response in mice which were immunised with SE was determined according to the number of antibody-forming cells (AFC), detected in the spleen cell suspensions using the method of Jerne and Nordin (1963). AFC were detected 4-5 days following immunisation. Presence of antibodies specific to EA or BSA in blood serum of mice was detected using a solid-phase enzyme-immunoassay (EIA). Isotype of antibodies specific to BSA was determined by EIA using secondary rabbit antibodies specific to mouse IgM, IgG1, IgG2a, IgG2b or IgG3.
The lipopeptide was Pam3Cys-Ser-Lys4 a well-known immunoadjuvant.

Results on 1 substance are retold here after patent publication US20050042236A1, “Plant extract active as an immunostimulating agent” (priority 2001, published 2005).

Turning to Pam3Cys-Ser-Lys4 [lipopeptide], the “Serum Titer of EA-specific Antibodies” value is 20,000.
